# Calls of active or inactive are those of the source. No cut-off for these calls is given here.
# Assays:
# Rattus norvegicus [1] = test: Effect on motor function in ip dosed Sprague-Dawley rat assessed as effect on locomotor activity after 1.5 hrs post dose; type: ADME, organism-based; details: in vivo
# Rattus norvegicus [2] = test: Reduction in food intake in 24 hrs food-deprived Sprague-Dawley rat at 25 to 100 nmol, icv measured 2.5 hrs post dose relative to control; type: functional
# Rattus norvegicus [3] = test: Reduction in body weight gain in 24 hrs food-deprived Sprague-Dawley rat at 6.75 to 54 mg/kg, ip followed by standard chow pellets feeding and measured for 6.5 hrs post dose; type: functional, organism-based
# Rattus norvegicus [4] = test: Reduction in 24 hrs food intake in 24 hrs food-deprived Sprague-Dawley rat at 6.75 to 54 mg/kg, ip followed by standard chow pellets feeding and measured for 6.5 hrs post dose; type: functional, organism-based
# Rattus norvegicus [5] = test: Reduction in water intake in non-food-deprived Sprague-Dawley rat at 6.75 to 54 mg/kg, ip dosed 30 mins before beginning of dark cycle followed by exposure to standard chow pellets and measured 15.5 hrs post dose; type: functional, organism-based
# Rattus norvegicus [6] = test: Induction of sedation in non-food-deprived Sprague-Dawley rat subjected to pre-pulse of 12 db followed by 120 db pulse assessed as animal jump height level at 13.5 and 54 mg/kg, po dosed […] before test; type: organism-based; details: in vivo
# Rattus norvegicus [7] = test: Effect on motor function in ip dosed Sprague-Dawley rat assessed as effect on locomotor activity after 16 hrs post dose; type: ADME, organism-based; details: in vivo
# Rattus norvegicus [8] = test: Induction of sedation in ip dosed Sprague-Dawley rat assessed as absence of anxiety-like behavior after 16 hrs post dose; type: organism-based; details: in vivo
# Rattus norvegicus [9] = test: Induction of sedation in non-food-deprived Sprague-Dawley rat subjected to pre-pulse of 12 db followed by 120 db pulse assessed as animal jump height level at 6.75 mg/kg, po dosed […] before test; type: organism-based; details: in vivo
# Rattus norvegicus [10] = test: Reduction in body weight gain in non-food-deprived Sprague-Dawley rat at 13.5 mg/kg, ip qd for 22 days measured between day-4 and day-31 post dose; type: functional, organism-based
# Rattus norvegicus [11] = test: Induction of sedation in ip dosed Sprague-Dawley rat assessed as relaxed behavior after 16 hrs post dose; type: organism-based; details: in vivo
# Rattus norvegicus [12] = test: Reduction in water intake in 24 hrs food-deprived Sprague-Dawley rat at 6.75 to 54 mg/kg, ip followed by standard chow pellets feeding and measured for 6.5 hrs post dose; type: functional, organism-based
# Rattus norvegicus [13] = test: Reduction in body weight gain in non-food-deprived Sprague-Dawley rat at 6.75 to 54 mg/kg, ip dosed 30 mins before beginning of dark cycle followed by exposure to standard chow pellets and measured 15.5 hrs post dose; type: functional, organism-based
# Rattus norvegicus [14] = test: Reduction in food intake in 24 hrs food-deprived Sprague-Dawley rat assessed as food intake level at 54 mg/kg, po followed by standard chow pellets feeding and measured 8 hrs post dose (reference value: 14g); type: functional
# Rattus norvegicus [15] = test: Reduction in body weight gain in 24 hrs food-deprived Sprague-Dawley rat at 27 and 54 mg/kg, ip followed by standard chow pellets feeding and measured for 6.5 hrs post dose; type: functional, organism-based
# Rattus norvegicus [16] = test: Reduction in body weight gain in non-food-deprived Sprague-Dawley rat at 13.5 mg/kg, ip qd for 22 days measured on day-1 and day-3 post dose; type: functional, organism-based
# Rattus norvegicus [17] = test: Reduction in water intake in 24 hrs food-deprived Sprague-Dawley rat assessed reduction in water intake level at 100 nmol, icv relative to control; type: functional
# [18] = target: G-protein coupled receptor 6 (Homo sapiens) (UniProt P46095); test: Activity at rat G-protein GSalpha fused GPR6 (unknown origin) expressed in HEK293 cell membranes assessed as effect on [35S]GTPgammaS binding pre-incubated for 5 to 10 mins followed by 60 mins incubation in presence of [35S]GTPgammaS by scintillation proximity assay; type: functional
# Rattus norvegicus [19] = test: Reduction in body weight gain in non-food-deprived Sprague-Dawley rat at 13.5 mg/kg, ip qd for 22 days measured between day-31 and day-60 post dose; type: functional, organism-based
# G-protein coupled receptor 6 (Homo sapiens), sequence (P46095 whole entry, the tested form may be a part): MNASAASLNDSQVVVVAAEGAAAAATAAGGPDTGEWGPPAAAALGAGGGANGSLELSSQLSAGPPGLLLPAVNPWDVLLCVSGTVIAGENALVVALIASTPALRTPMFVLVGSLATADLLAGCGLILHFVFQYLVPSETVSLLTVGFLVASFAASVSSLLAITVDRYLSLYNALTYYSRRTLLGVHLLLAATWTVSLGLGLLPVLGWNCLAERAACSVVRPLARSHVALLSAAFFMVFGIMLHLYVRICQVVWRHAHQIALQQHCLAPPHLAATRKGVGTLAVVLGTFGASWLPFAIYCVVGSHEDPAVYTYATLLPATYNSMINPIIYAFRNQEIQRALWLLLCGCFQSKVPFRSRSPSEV
compound,measurement,setting,value
O=C(/N=C1\SSC2=NCCN21)c1cccs1,Activity,Rattus norvegicus [1],Non-toxic
same,fold change (FC),Rattus norvegicus [2],<=6
same,Activity,Rattus norvegicus [3],Active
same,Activity,Rattus norvegicus [4],Active
same,Activity,Rattus norvegicus [5],Active
same,Activity,Rattus norvegicus [6],Toxic
same,Activity,Rattus norvegicus [7],Toxic
same,Activity,Rattus norvegicus [8],Toxic
same,Activity,Rattus norvegicus [9],Non-toxic
same,Activity,Rattus norvegicus [10],Active
same,Activity,Rattus norvegicus [11],Toxic
same,Activity,Rattus norvegicus [12],Active
same,Activity,Rattus norvegicus [13],Active
same,Activity,Rattus norvegicus [14],16 g
same,Activity,Rattus norvegicus [15],Active
same,Activity,Rattus norvegicus [16],Active
same,inhibition (INH),Rattus norvegicus [17],<=50%
same,Activity,[18],Active
same,Activity,Rattus norvegicus [19],Active

# — ChEMBL document CHEMBL3714737, “Small molecule modulators of G protein-coupled receptor six” (2002)
